Each compound was assayed against E1-E2-DNA complex (Human papillomavirus 11, UniProt P04015) (assay: E2-dependent E1 DNA binding assay (E1-E2 DNA assay)). Settings: E1-E2 DNA assay of Example 11, HPV-11.
Description: This particular assay determines the ability of a test compound to inhibit the activity (IC50) of HPV-11 DNA replication. More specifically, in the assay described herein, the inhibitory activity of the test compound is evaluated based on its ability to interfere with the E1-E2-DNA origin of replication interaction, thereby inhibiting initiation of viral DNA replication.
This assay was modeled on a similar assay for SV40 T Antigen described by McKay (J. Mol. Biol., 1981,145:471). A 400bp radiolabeled DNA probe, containing the -HPV-11 origin of replication (Chiang et al.., 1992, Proc. Natl.-Acad. Sci. USA 89:5799) was produced by pcr, using plasmid pBluescript™ SK encoding the origin (nucleotides 7886-61 of the HPV-11 genome in unique BAMH1 site) as template and primers flanking the origin. Radiolabel was incorporated as [33p]dCTP. Binding assay buffer consisted of: 20 mM Tris pH 7.6, 100 mM NaCI, 1 mM DTT, 1 mM EDTA.
Other reagents used were protein A-SPA beads (type II, Amersham) and K72 rabbit polyclonal antiserum, raised against a peptide corresponding to the C-terminal 14 amino acids of HPV-11 E1. Following the protocol from Amersham, one bottle of beads was mixed with 25 mL of binding assay buffer. For the assay, a saturating amount of K72 antiserum was added to the beads and the mixture was incubated for 1 h, washed with one volume of binding assay buffer, and then resuspended in the same volume of fresh binding assay buffer. Binding reactions contained 8 ng of E2, approximately 100-200 ng of purified E1, and 0.4 ng of radiolabeled probe in a total of 80 µL of binding assay buffer. After 1 h at room temperature, 25 µL of K72 antibody-SPA bead suspension was added to with the binding reaction and mixed. After an additional hour of incubation at room temperature, the reactions were centrifuged briefly to pellet the beads and the extent of complex formation was determined by scintillation counting on a Packard TopCount™. Typically, the signal for reactions containing E1 and E2 was 20-30 fold higher than the background observed when either E1, E2, or both was omitted.

Sequence of E1-E2-DNA complex (P04015 whole entry, one chain of several): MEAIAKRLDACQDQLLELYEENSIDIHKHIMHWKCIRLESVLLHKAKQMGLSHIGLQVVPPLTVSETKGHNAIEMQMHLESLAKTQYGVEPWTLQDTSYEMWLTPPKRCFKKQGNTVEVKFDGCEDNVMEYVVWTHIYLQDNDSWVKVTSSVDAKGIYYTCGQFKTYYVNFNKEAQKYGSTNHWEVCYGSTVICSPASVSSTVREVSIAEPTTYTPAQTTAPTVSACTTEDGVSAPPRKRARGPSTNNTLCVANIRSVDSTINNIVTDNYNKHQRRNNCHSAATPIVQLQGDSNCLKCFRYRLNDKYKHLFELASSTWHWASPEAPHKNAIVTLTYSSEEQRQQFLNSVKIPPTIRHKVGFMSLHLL

Compound | IC50 [µM]
O=C(Nc1ccc2c(c1)OCO2)C1C(c2ccc(C(F)(F)F)c(F)c2)OC2(C(=O)c3ccccc3C2=O)C1C(=O)O (centres unmarked) [Compound 1045] | 0.5 to 5
CC(C)(C)NC(=O)C1C(c2ccc(Cl)c(Cl)c2)OC2(C(=O)c3ccccc3C2=O)C1C(=O)O (centres unmarked) [Compound 1046] | 0.5 to 5
O=C(Nc1ccc2c(c1)OCO2)C1C(c2ccc(Cl)c(Cl)c2)OC2(C(=O)c3cccc(F)c3C2=O)C1C(=O)O (centres unmarked) [Compound 1048] | 0.5 to 5
O=C(Nc1ccc(Oc2ccccc2)cc1)C1C(c2ccc(Cl)c(Cl)c2)OC2(C(=O)c3ccccc3C2=O)C1C(=O)O (centres unmarked) [Compound 1049] | 0.5 to 5
O=C(Nc1ccc2c(c1)OCO2)C1C(c2ccc(Cl)c(Cl)c2)OC2(C(=O)c3cccc(F)c3C2=O)C1C(=O)O (centres unmarked) [Compound 1051] | 0.5 to 5
O=C(Nc1ccc(-c2csnn2)cc1)C1C(c2ccc(Cl)c(Cl)c2)OC2(C(=O)c3ccccc3C2=O)C1C(=O)O (centres unmarked) [Compound 1052] | < 0.5
CS(=O)(=O)c1ccc(NC(=O)C2C(c3ccc(Cl)c(Cl)c3)OC3(C(=O)c4ccccc4C3=O)C2C(=O)O)cc1 (centres unmarked) [Compound 1053] | 0.5 to 5
O=C(Nc1ccc(C2CCCCC2)cc1)C1C(c2ccc(Cl)c(Cl)c2)OC2(C(=O)c3ccccc3C2=O)C1C(=O)O (centres unmarked) [Compound 1054] | < 0.5
CCc1ccc(NC(=O)C2C(c3ccc(Cl)c(Cl)c3)OC3(C(=O)c4ccccc4C3=O)C2C(=O)O)cc1 (centres unmarked) [Compound 1055] | 0.5 to 5
CC(=O)c1ccc(NC(=O)C2C(c3ccc(C)c(C)c3)OC3(C(=O)c4ccccc4C3=O)C2C(=O)O)cc1 (centres unmarked) [Compound 1056] | 0.5 to 5
O=C(Nc1ccc(NC(=O)C2C(c3ccc(Cl)c(Cl)c3)OC3(C(=O)c4ccccc4C3=O)C2C(=O)O)cc1)c1ccccc1 (centres unmarked) [Compound 1057] | 0.5 to 5
O=C(NC1CC1c1ccccc1)C1C(c2ccc(Cl)c(Cl)c2)OC2(C(=O)c3ccccc3C2=O)C1C(=O)O (centres unmarked) [Compound 1058] | 0.5 to 5
O=C(Nc1ccc(N2CCOCC2)cc1)C1C(c2ccc(F)c(F)c2)OC2(C(=O)c3ccccc3C2=O)C1C(=O)O (centres unmarked) [Compound 1059] | 0.5 to 5
CC(C)(C)c1ccc(NC(=O)C2C(c3ccc(Cl)c(Cl)c3)OC3(C(=O)c4ccccc4C3=O)C2C(=O)O)cc1 (centres unmarked) [Compound 1060] | 0.5 to 5
O=C(Nc1cnc2ccccc2c1)C1C(c2ccc(F)c(F)c2)OC2(C(=O)c3ccccc3C2=O)C1C(=O)O (centres unmarked) [Compound 1061] | 5 to 50
O=C(Nc1ccc(Cl)cc1)C1C(c2ccc(F)c(F)c2)OC2(C(=O)c3ccccc3C2=O)C1C(=O)O (centres unmarked) [Compound 1062] | 5 to 50
O=C(Nc1ccc(Cl)cc1)C1C(c2ccc(Cl)c(Cl)c2)OC2(C(=O)c3ccccc3C2=O)C1C(=O)O (centres unmarked) [Compound 1063] | 0.5 to 5
CC(=O)c1ccc(NC(=O)C2C(c3ccc(F)c(F)c3)OC3(C(=O)c4ccccc4C3=O)C2C(=O)O)cc1 (centres unmarked) [Compound 1064] | 5 to 50
Cc1ccc(NC(=O)C2C(c3ccc(Cl)c(Cl)c3)OC3(C(=O)c4ccccc4C3=O)C2C(=O)O)cc1 (centres unmarked) [Compound 1065] | 0.5 to 5

Compound | IC50 [µM]
O=C(NC1CC1c1ccccc1)C1C(c2ccc(Cl)c(Cl)c2)OC2(C(=O)c3ccccc3C2=O)C1C(=O)O (centres unmarked) [Compound 1066] | < 0.5
CC(=O)c1ccc(NC(=O)C2C(c3ccc(C(F)(F)F)c(F)c3)OC3(C(=O)c4ccccc4C3=O)C2C(=O)O)cc1 (centres unmarked) [Compound 1067] | 5 to 50
O=C(Nc1ccccc1)C1C(c2ccc(F)c(F)c2)OC2(C(=O)c3ccccc3C2=O)C1C(=O)O (centres unmarked) [Compound 1068] | 5 to 50
N#Cc1ccc(NC(=O)C2C(c3ccc(Cl)c(Cl)c3)OC3(C(=O)c4ccccc4C3=O)C2C(=O)O)cc1 (centres unmarked) [Compound 1070] | 0.5 to 5
Cc1ccc(C2OC3(C(=O)c4ccccc4C3=O)C(C(=O)O)C2C(=O)Nc2cnc3ccccc3c2)cc1C (centres unmarked) [Compound 1071] | 5 to 50
CSc1ccc(NC(=O)C2C(c3ccc(F)c(F)c3)OC3(C(=O)c4ccccc4C3=O)C2C(=O)O)cc1 (centres unmarked) [Compound 1073] | 5 to 50
CC(C)(C)c1ccc(NC(=O)C2C(c3ccc(Br)c(Br)c3)OC3(C(=O)c4ccccc4C3=O)C2C(=O)O)cc1 (centres unmarked) [Compound 1079] | 5 to 50
N#Cc1cccc(C2OC3(C(=O)c4ccccc4C3=O)C(C(=O)O)C2C(=O)Nc2ccc3c(c2)OCO3)c1 (centres unmarked) [Compound 1080] | 5 to 50
CSc1ccc(NC(=O)C2C(c3ccc(Br)c(Br)c3)OC3(C(=O)c4ccccc4C3=O)C2C(=O)O)cc1 (centres unmarked) [Compound 1081] | < 0.5
O=C(NC1CCCCC1)C1C(c2ccc(Cl)c(Cl)c2)OC2(C(=O)c3ccccc3C2=O)C1C(=O)O (centres unmarked) [Compound 1082] | 0.5 to 5
O=C(Nc1ccc(-c2csnn2)cc1)C1C(c2ccc(F)c(F)c2)OC2(C(=O)c3ccccc3C2=O)C1C(=O)O (centres unmarked) [Compound 1083] | 0.5 to 5
O=C(Nc1ccc2c(c1)OCO2)C1C(c2ccc(Br)c(Br)c2)OC2(C(=O)c3ccccc3C2=O)C1C(=O)O (centres unmarked) [Compound 1084] | < 0.5
N#Cc1cccc(C2OC3(C(=O)c4ccccc4C3=O)C(C(=O)O)C2C(=O)Nc2ccc(N3CCOCC3)cc2)c1 (centres unmarked) [Compound 1085] | 5 to 50
CS(=O)(=O)c1ccc(NC(=O)C2C(c3ccc(Br)c(Br)c3)OC3(C(=O)c4ccccc4C3=O)C2C(=O)O)cc1 (centres unmarked) [Compound 1086] | < 0.5
CC(=O)Nc1ccc(NC(=O)C2C(c3ccc(Br)c(Br)c3)OC3(C(=O)c4ccccc4C3=O)C2C(=O)O)cc1 (centres unmarked) [Compound 1092] | < 0.5
O=C(NN1CCOCC1)C1C(c2ccc(F)c(Cl)c2)OC2(C(=O)c3ccccc3C2=O)C1C(=O)O (centres unmarked) [Compound 1093] | 5 to 50
CC(=O)c1ccc(NC(=O)C2C(c3ccc(F)c(Cl)c3)OC3(C(=O)c4ccccc4C3=O)C2C(=O)O)cc1 (centres unmarked) [Compound 1094] | 0.5 to 5
O=C(Nc1cc(F)cc(F)c1)C1C(c2ccc(Cl)c(Cl)c2)OC2(C(=O)c3ccccc3C2=O)C1C(=O)O (centres unmarked) [Compound 1096] | 0.5 to 5
O=C(NCCc1ccccc1)C1C(c2ccc(Br)c(Br)c2)OC2(C(=O)c3ccccc3C2=O)C1C(=O)O (centres unmarked) [Compound 1097] | < 0.5

Compound | IC50 [µM]
O=C(NC1Cc2ccccc2C1)C1C(c2ccc(Cl)c(Cl)c2)OC2(C(=O)c3ccccc3C2=O)C1C(=O)O (centres unmarked) [Compound 1098] | 0.5 to 5
O=C(NC1CCCCC1)C1C(c2ccc(Br)c(Br)c2)OC2(C(=O)c3ccccc3C2=O)C1C(=O)O (centres unmarked) [Compound 1099] | < 0.5
O=C(c1ccccc1)c1cccc(NC(=O)C2C(c3ccc(Cl)c(Cl)c3)OC3(C(=O)c4ccccc4C3=O)C2C(=O)O)c1 (centres unmarked) [Compound 1100] | 0.5 to 5
O=C(Nc1ccc(Cl)cc1)C1C(c2ccc(Cl)c(Cl)c2)OC2(C(=O)c3ccccc3C2=O)C1C(=O)O (centres unmarked) [Compound 1101] | 0.5 to 5
O=C(c1ccccc1)c1cccc(NC(=O)C2C(c3ccc(Br)c(Br)c3)OC3(C(=O)c4ccccc4C3=O)C2C(=O)O)c1 (centres unmarked) [Compound 1103] | 0.5 to 5
O=C(Nc1ccc(Br)c(Cl)c1)C1C(c2ccc(Cl)c(Cl)c2)OC2(C(=O)c3ccccc3C2=O)C1C(=O)O (centres unmarked) [Compound 1104] | 0.5 to 5
O=C(Nc1ccc(F)c(F)c1)C1C(c2ccc(Br)c(Br)c2)OC2(C(=O)c3ccccc3C2=O)C1C(=O)O (centres unmarked) [Compound 1105] | 0.5 to 5
CC(=O)c1ccc(NC(=O)C2C(c3ccc(Cl)c(Cl)c3)OC3(C(=O)c4ccc(F)cc4C3=O)C2C(=O)O)cc1 (centres unmarked) [Compound 1106] | 0.5 to 5
CC(=O)c1ccc(NC(=O)C2C(c3ccc(Cl)c(Cl)c3)OC3(C(=O)c4ccc(F)cc4C3=O)C2C(=O)O)cc1 (centres unmarked) [Compound 1107] | 0.5 to 5
CC(=O)Nc1ccc(NC(=O)C2C(c3ccc(Cl)c(Cl)c3)OC3(C(=O)c4ccccc4C3=O)C2C(=O)O)cc1 (centres unmarked) [Compound 1108] | 0.5 to 5
O=C(Nc1ccc(Cl)cc1)C1C(c2ccc(Br)c(Br)c2)OC2(C(=O)c3ccccc3C2=O)C1C(=O)O (centres unmarked) [Compound 1110] | < 0.5
O=C(Nc1ccc(F)c(F)c1)C1C(c2ccc(Cl)c(Cl)c2)OC2(C(=O)c3ccccc3C2=O)C1C(=O)O (centres unmarked) [Compound 1111] | 0.5 to 5
O=C(Nc1ccc(OC(F)(F)F)cc1)C1C(c2ccc(Cl)c(Cl)c2)OC2(C(=O)c3ccccc3C2=O)C1C(=O)O (centres unmarked) [Compound 1112] | 0.5 to 5
O=C(NC1Cc2ccccc2C1)C1C(c2ccc(Br)c(Br)c2)OC2(C(=O)c3ccccc3C2=O)C1C(=O)O (centres unmarked) [Compound 1113] | < 0.5
CC(=O)c1ccc(NC(=O)C2C(c3ccc(Cl)c(Cl)c3)OC3(C(=O)c4ccc(Cl)cc4C3=O)C2C(=O)O)cc1 (centres unmarked) [Compound 1114] | 0.5 to 5
O=C(NCCc1ccccc1)C1C(c2ccc(F)c(Cl)c2)OC2(C(=O)c3ccccc3C2=O)C1C(=O)O (centres unmarked) [Compound 1115] | 0.5 to 5
CC(=O)c1ccc(NC(=O)C2C(c3ccc(Cl)c(Cl)c3)OC3(C(=O)c4ccc(Cl)cc4C3=O)C2C(=O)O)cc1 (centres unmarked) [Compound 1116] | 5 to 50
O=C(Nc1cc2c(cc1[N+](=O)[O-])OCO2)C1C(c2ccc(Cl)c(Cl)c2)OC2(C(=O)c3ccccc3C2=O)C1C(=O)O (centres unmarked) [Compound 1117] | 0.5 to 5

Source: EP1345943B1, “INHIBITORS OF PAPILLOMA VIRUS” (BOEHRINGER INGELHEIM (CANADA) LTD., priority 2000, dated 2002)
